The target of test [1] is T1, Type-1 angiotensin II receptor (Homo sapiens, UniProt P30556).
T1 sequence (P30556 whole entry): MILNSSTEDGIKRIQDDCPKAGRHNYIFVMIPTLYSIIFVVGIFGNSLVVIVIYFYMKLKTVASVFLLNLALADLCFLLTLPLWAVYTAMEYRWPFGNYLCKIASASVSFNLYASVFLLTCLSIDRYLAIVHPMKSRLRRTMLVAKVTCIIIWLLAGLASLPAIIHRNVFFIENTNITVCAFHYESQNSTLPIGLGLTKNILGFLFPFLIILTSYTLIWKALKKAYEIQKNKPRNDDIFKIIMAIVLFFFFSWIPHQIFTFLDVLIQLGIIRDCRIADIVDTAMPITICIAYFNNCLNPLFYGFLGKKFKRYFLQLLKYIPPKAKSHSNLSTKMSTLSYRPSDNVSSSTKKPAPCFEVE
Description: Inhibition of AT1 receptor.

The next test deals with T2, Apelin receptor (Homo sapiens, UniProt P35414).
T2 sequence (P35414 whole entry): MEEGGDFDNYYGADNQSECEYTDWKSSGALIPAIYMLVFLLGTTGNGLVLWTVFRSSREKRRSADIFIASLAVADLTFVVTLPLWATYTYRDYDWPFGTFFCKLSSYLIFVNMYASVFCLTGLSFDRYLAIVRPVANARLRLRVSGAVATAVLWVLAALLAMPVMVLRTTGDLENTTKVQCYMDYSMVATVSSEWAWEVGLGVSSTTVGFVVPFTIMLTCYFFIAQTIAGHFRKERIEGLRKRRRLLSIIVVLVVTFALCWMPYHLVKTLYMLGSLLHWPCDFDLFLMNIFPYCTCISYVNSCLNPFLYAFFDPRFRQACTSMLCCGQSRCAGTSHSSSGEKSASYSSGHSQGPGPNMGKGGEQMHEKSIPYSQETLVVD
Description: Antagonist activity at APJ receptor expressed in CHOK1 cells assessed as inhibition of apelin13-induced beta-arrestin recruitment after 90 mins by luminescence assay. It counts as functional, cell-based, CHO-K1. (In general: Recruitment of arrestin is a read-out of receptor activation apart from second messengers.)

A short description of test [2]: Selectivity ratio of IC50 for AT1 receptor to IC50 for APJ receptor (unknown receptor).

On to `Cc1cc(C)nc(SCc2cc(=O)c(OS(=O)(=O)c3ccccc3)co2)n1`, for which the concentration for half-maximal inhibition (IC50) (in test [1]; at Apelin receptor) was above 79 µM each time.

As for `Cc1ccnc(SCc2cc(=O)c(OC(=O)c3cccc(Cl)c3)co2)n1`, the half-maximal inhibitory concentration (IC50) (in test [1]; at Apelin receptor) was above 79 µM each time.

With `CC(C)(C)c1ccc(C(=O)Oc2coc(CSc3ncccn3)cc2=O)cc1`, the IC50 (in test [1]; on Apelin receptor) was above 79 µM throughout.

In the case of `CCCCOc1ccc(C(=O)Oc2coc(CSc3ncccn3)cc2=O)cc1`, the 50% inhibitory concentration (IC50) (in test [1]; at Apelin receptor) was above 79 µM in each case. Take `O=c1cc(CSc2ncccn2)occ1O`: the IC50 (in test [1]; at Apelin receptor) was above 79 µM in each case. `Cc1ccnc(SCc2cc(=O)c(OC(=O)c3ccc(C#N)cc3)co2)n1`: the half-maximal inhibitory concentration (IC50) in test [1] was above 79 µM. The Ratio IC50 in test [2] was above 7. In the case of `O=c1cc(CSc2ccccc2)occ1O`, the half-inhibitory concentration (IC50) (in test [1]; on Apelin receptor) was above 79 µM each time. Take `Cc1ccnc(S(=O)(=O)Cc2cc(=O)c(OC(=O)c3ccc(Cl)c([N+](=O)[O-])c3)co2)n1`: the half-inhibitory concentration (IC50) is above 79 µM in test [1] and 3.21 µM at Apelin receptor. Further, the Ratio IC50 in test [2] is above 25. In the case of `Cc1ccnc(SCc2cc(=O)c(OCc3ccc(Cl)c([N+](=O)[O-])c3)co2)n1`, the IC50 (in test [1]; on Apelin receptor) was above 79 µM in each case. With `O=C(Oc1coc(CSc2ncccn2)cc1=O)c1ccc(-c2ccccc2)cc1`, the IC50 (in test [1]; on Apelin receptor) was above 79 µM each time. On to `Cc1cccc(C(=O)Oc2coc(CSc3nccc(C)n3)cc2=O)c1`, for which the IC50 (in test [1]; at Apelin receptor) was above 79 µM throughout.

In the case of `O=C(Oc1coc(CSc2ccc(OC(F)(F)F)cc2)cc1=O)c1ccc(Cl)c([N+](=O)[O-])c1`, the figures for the IC50 (in test [1]; on Apelin receptor) were above 79 µM and 24 µM, respectively. Further, in test [2], the Ratio IC50 was above 3. On to `Cc1ccnc(SCc2cc(=O)c(OC(=O)c3ccco3)co2)n1`, for which the IC50 (in test [1]; on Apelin receptor) was above 79 µM in each case. With `Cc1ccc(C(=O)Oc2coc(CSc3nccc(C)n3)cc2=O)cc1`, the IC50 (in test [1]; at Apelin receptor) was above 79 µM each time. As to `COc1ccc(C(=O)Oc2coc(CSc3ncccn3)cc2=O)cc1`, the half-inhibitory concentration (IC50) (in test [1]; on Apelin receptor) was above 79 µM throughout. Regarding `CCN(CC)S(=O)(=O)c1ccc(C(=O)Oc2coc(CSc3ncccn3)cc2=O)cc1`, the IC50 (in test [1]; at Apelin receptor) was above 79 µM throughout. For `Cc1ccnc(SCc2cc(=O)c(OC(=O)c3ccc(OC(F)(F)F)cc3)co2)n1`, the IC50 (in test [1]; at Apelin receptor) was above 79 µM in each case.

As for `Cc1ccnc(SCc2cc(=O)c(OC(=O)c3cc(Cl)ccc3[N+](=O)[O-])co2)n1`, the IC50 in test [1] is above 79 µM. `Cc1c(C(=O)Oc2coc(CSc3ncccn3)cc2=O)cccc1[N+](=O)[O-]` came in with an IC50 in test [1] above 79 µM. Turning to `Cc1ccnc(SCc2cc(=O)c(NC(=O)c3ccccc3)co2)n1`, the IC50 (in test [1]; on Apelin receptor) was above 79 µM in each case. Take `O=C(Oc1coc(CSc2ncccn2)cc1=O)c1cc(Cl)ccc1[N+](=O)[O-]`: the half-maximal inhibitory concentration (IC50) (in test [1]; on Apelin receptor) was above 79 µM throughout.

Take `O=c1cc(CSc2ccc(F)cc2)occ1O`: the half-maximal inhibitory concentration (IC50) (in test [1]; on Apelin receptor) was above 79 µM each time.

Turning to `COc1cccc(C(=O)Oc2coc(CSc3nccc(C)n3)cc2=O)c1`, the IC50 (in test [1]; at Apelin receptor) was above 79 µM throughout. `Cc1ccnc(SCc2cc(=O)c(OCc3ccccc3)co2)n1`: the IC50 (in test [1]; on Apelin receptor) was above 79 µM each time. Regarding `Cc1ccnc(SCc2cc(=O)c(OC(=O)c3ccc([N+](=O)[O-])o3)co2)n1`, the IC50 (in test [1]; on Apelin receptor) was above 79 µM throughout. Compound `O=C(Oc1coc(CSc2ncccn2)cc1=O)c1ccc(Br)cc1` displayed an IC50 in test [1] above 79 µM. `O=C(Oc1coc(CSc2ncccn2)cc1=O)c1ccc(S(=O)(=O)N2CCCC2)cc1`: the IC50 (in test [1]; on Apelin receptor) was above 79 µM throughout. As to `Cc1ccc(C(=O)Oc2coc(CSc3ncccn3)cc2=O)cc1`, the IC50 (in test [1]; on Apelin receptor) was above 79 µM each time. With `Cc1ccnc(SCc2cc(=O)c(OC(=O)c3cccc(C#N)c3)co2)n1`, the IC50 (in test [1]; at Apelin receptor) was above 79 µM in each case. Consider `COc1cc(C(=O)Oc2coc(CSc3ncccn3)cc2=O)c([N+](=O)[O-])cc1OC`, for which the IC50 (in test [1]; at Apelin receptor) was above 79 µM in each case.

In test [1], `Cc1ccnc(SCc2cc(=O)c(OC(=O)c3ccc([N+](=O)[O-])cc3)co2)n1` returned an IC50 above 79 µM. For the same compound, the Ratio IC50 in test [2] was above 23.

On to `CC(C)Oc1ccc(C(=O)Oc2coc(CSc3ncccn3)cc2=O)cc1`, for which the IC50 (in test [1]; at Apelin receptor) was above 79 µM throughout. In test [1], `O=C(Oc1coc(CSc2ncccn2)cc1=O)c1ccc(Cl)cc1` displayed a 50% inhibitory concentration (IC50) above 79 µM. In test [1], `Cc1ccnc(SCc2cc(=O)c(OC(=O)c3cc([N+](=O)[O-])ccc3Cl)co2)n1` yielded an IC50 above 79 µM. For `Cc1ccnc(SCc2cc(=O)c(OC(=O)c3ccc(C)c([N+](=O)[O-])c3)co2)n1`, in test [1], the IC50 is above 79 µM. Moreover, the Ratio IC50 in test [2] was above 17. Regarding `Cc1ccnc(SCc2cc(=O)c(O)co2)n1`, the IC50 (in test [1]; on Apelin receptor) was above 79 µM in each case. In test [1], `Cc1ccnc(SCc2cc(=O)c(OC(=O)c3ccc(S(=O)(=O)N4CCCC4)cc3)co2)n1` returned an IC50 above 79 µM. The compound `Cc1ccc(C(=O)Oc2coc(CSc3ncccn3)cc2=O)cc1[N+](=O)[O-]` gave an IC50 in test [1] above 79 µM. For the same compound, the Ratio IC50 in test [2] is above 11. On to `CN(C)S(=O)(=O)c1ccc(C(=O)Oc2coc(CSc3ncccn3)cc2=O)cc1`, for which the IC50 (in test [1]; on Apelin receptor) was above 79 µM in each case. On to `Cc1cc(C)nc(SCc2cc(=O)c(O)co2)n1`, for which the IC50 (in test [1]; on Apelin receptor) was above 79 µM throughout.

In the case of `O=C(Oc1coc(CSc2ncccn2)cc1=O)c1ccc(S(=O)(=O)N2CCCCC2)cc1`, the IC50 (in test [1]; at Apelin receptor) was above 79 µM throughout. `Cc1ccnc(SCc2cc(=O)c(OC(=O)c3cnco3)co2)n1`: the IC50 (in test [1]; on Apelin receptor) was above 79 µM each time. As to `O=C(Oc1coc(CSc2ncccn2)cc1=O)c1ccc(C(F)(F)F)cc1`, the IC50 in test [1] was above 79 µM. Compound `Cc1ccnc(SCc2cc(=O)c(OC(=O)c3ccc(C(F)(F)F)cc3)co2)n1` yielded an IC50 in test [1] above 79 µM. Still for that read-out and setting: the value for `O=C(Oc1coc(CSc2ncccn2)cc1=O)c1cccc([N+](=O)[O-])c1` was above 79 µM. For the compound `Cc1ccnc(SCc2cc(=O)c(OC(=O)c3ccsc3)co2)n1`, the IC50 (in test [1]; on Apelin receptor) was above 79 µM throughout.

With `Cc1ccnc(SCc2cc(=O)c(NC(=O)c3ccc([N+](=O)[O-])cc3)co2)n1`, the 50% inhibitory concentration (IC50) (in test [1]; at Apelin receptor) was above 79 µM in each case. With `COc1ccc(C(=O)Oc2coc(CSc3nccc(C)n3)cc2=O)cc1`, the concentration for half-maximal inhibition (IC50) (in test [1]; at Apelin receptor) was above 79 µM in each case. For the compound `Cc1ccnc(SCc2cc(=O)c(OC(=O)c3ccc(Cl)cc3)co2)n1`, the concentration for half-maximal inhibition (IC50) (in test [1]; on Apelin receptor) was above 79 µM throughout. On to `Cc1cc(C)nc(SCc2cc(=O)c(OS(=O)(=O)c3ccc([N+](=O)[O-])cc3)co2)n1`, for which the IC50 (in test [1]; at Apelin receptor) was above 79 µM throughout.

As to `O=C(Oc1coc(CSc2ncccn2)cc1=O)c1ccccc1`, the IC50 (in test [1]; on Apelin receptor) was above 79 µM in each case.

Consider `Cc1ccnc(SCc2cc(=O)c(OC(=O)C(C)(C)C)co2)n1`, for which the IC50 (in test [1]; on Apelin receptor) was above 79 µM in each case. With `Cc1ccnc(SCc2cc(=O)c(OC(=O)c3cccc([N+](=O)[O-])c3)co2)n1`, the IC50 in test [1] was above 79 µM.

On to `Cc1ccnc(SCc2cc(=O)c(OC(=O)C(C)C)co2)n1`, for which the IC50 (in test [1]; on Apelin receptor) was above 79 µM throughout. For `CCOc1ccc(C(=O)Oc2coc(CSc3ncccn3)cc2=O)cc1`, the IC50 (in test [1]; at Apelin receptor) was above 79 µM in each case.

As for `O=C(Oc1coc(CSc2ncccn2)cc1=O)c1ccc(S(=O)(=O)N2CCOCC2)cc1`, the IC50 (in test [1]; on Apelin receptor) was above 79 µM each time. For `Cc1ccnc(SCc2cc(=O)c(OC(=O)c3ccccc3Cl)co2)n1`, the IC50 in test [1] was above 79 µM; at Apelin receptor it was above 59 µM. Taken in the same sequence, the figures for `Cc1ccnc(SCc2cc(=O)c(OC(=O)c3ccccc3)co2)n1` were above 79 µM and above 79 µM. The matching figures for `Cc1ccc(C(=O)Oc2coc(CSc3ncccn3)cc2=O)cc1C`: above 79 µM and above 79 µM. `O=C(Oc1coc(CSc2ncccn2)cc1=O)c1ccc(Cl)c([N+](=O)[O-])c1` registered an IC50 in test [1] above 79 µM. In addition, the Ratio IC50 in test [2] is above 13.

Turning to `Cc1ccnc(SCc2cc(=O)c(OC(=O)c3ccc(F)cc3)co2)n1`, the IC50 (in test [1]; on Apelin receptor) was above 79 µM each time.

As to `CC(=O)Oc1coc(CSc2nccc(C)n2)cc1=O`, the IC50 (in test [1]; at Apelin receptor) was above 79 µM in each case. For `O=C(Oc1coc(CSc2ncccn2)cc1=O)c1ccc(F)cc1`, the IC50 (in test [1]; on Apelin receptor) was above 79 µM in each case. Take `Cc1ccnc(SCc2cc(=O)c(OC(=O)c3ccccc3C)co2)n1`: the IC50 (in test [1]; at Apelin receptor) was above 79 µM throughout.

Broadly, the IC50 is the concentration that gives 50% inhibition.

The values are drawn from ChEMBL document CHEMBL2157975 (Bioorg Med Chem Lett, 2012).
